What was measured:
Assay in all cases: relative viability (nuclei count vs DMSO), 5 days (fraction); higher = more cells survive
[1] = compound: C=CCNC1=C2C[C@@H](C)C[C@H](OC)[C@H](O)[C@@H](C)/C=C(\C)[C@H](OC(N)=O)[C@@H](OC)/C=C\C=C(/C)C(=O)NC(=CC1=O)C2=O [17-AAG] + NC(=O)Nc1cc(-c2cccc(F)c2)sc1C(=O)N[C@H]1CCCNC1 [AZD7762] (partner 0.2 µM)
Summary of the method: (§1)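 Five library-drug doses in √10 steps were combined with a fixed anchor-drug dose, or a single drug was given alone, by pin tool to lung cancer cell lines in 1536-well plates the day after seeding. Nuclei were stained and counted after 5 days. Relative viability is the nuclei count in treated wells over that in vehicle wells, taken as the median of duplicate plates.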

[2] = compound: C=CCNC1=C2C[C@@H](C)C[C@H](OC)[C@H](O)[C@@H](C)/C=C(\C)[C@H](OC(N)=O)[C@@H](OC)/C=C\C=C(/C)C(=O)NC(=CC1=O)C2=O [17-AAG] + Cc1nc(NC(=O)N2CCC[C@H]2C(N)=O)sc1-c1ccnc(C(C)(C)C(F)(F)F)c1 [Alpelisib] (partner 2 µM)
Summary of the method: as §1

[3] = compound: C=CCNC1=C2C[C@@H](C)C[C@H](OC)[C@H](O)[C@@H](C)/C=C(\C)[C@H](OC(N)=O)[C@@H](OC)/C=C\C=C(/C)C(=O)NC(=CC1=O)C2=O [17-AAG] + N=C(N)NC(=N)NCCc1ccccc1 [Phenformin] (partner 250 µM)
Summary of the method: as §1

[4] = compound: C=CCNC1=C2C[C@@H](C)C[C@H](OC)[C@H](O)[C@@H](C)/C=C(\C)[C@H](OC(N)=O)[C@@H](OC)/C=C\C=C(/C)C(=O)NC(=CC1=O)C2=O [17-AAG] + CS(=O)(=O)N1CCN(Cc2cc3nc(-c4cccc5[nH]ncc45)nc(N4CCOCC4)c3s2)CC1 [Pictilisib] (partner 1 µM)
Summary of the method: as §1

With NCI-H1437 the relative viability ([1]; first compound 0.00128 µM) was 1.1, the relative viability ([1]; first compound 0.004048 µM) was 1.07 and the relative viability ([1]; first compound 0.0128 µM) was 0.651. It also gave a relative viability ([1]; first compound 0.04048 µM) of 0.271, a relative viability ([1]; first compound 0.128 µM) of 0.201 and a relative viability ([2]; first compound 0.00128 µM) of 0.959. It also gave a relative viability ([2]; first compound 0.004048 µM) of 0.929, a relative viability ([2]; first compound 0.0128 µM) of 0.88 and a relative viability ([2]; first compound 0.04048 µM) of 0.107. For the same cell line, the relative viability ([2]; first compound 0.128 µM) was 0.122, the relative viability ([3]; first compound 0.00128 µM) was 0.312 and the relative viability ([3]; first compound 0.004048 µM) was 0.316. It also gave a relative viability ([3]; first compound 0.0128 µM) of 0.179, a relative viability ([3]; first compound 0.04048 µM) of 0.153 and a relative viability ([3]; first compound 0.128 µM) of 0.129. The relative viability ([4]; first compound 0.00128 µM) was 0.534, the relative viability ([4]; first compound 0.004048 µM) was 0.489 and the relative viability ([4]; first compound 0.0128 µM) was 0.144. For the same cell line, the relative viability ([4]; first compound 0.04048 µM) was 0.0969 and the relative viability ([4]; first compound 0.128 µM) was 0.0847.
In the case of NCI-H1651, the relative viability ([1]; first compound 0.00128 µM) is reported as 0.463, the relative viability ([1]; first compound 0.004048 µM) is reported as 0.512 and the relative viability ([1]; first compound 0.0128 µM) is reported as 0.482. For the same cell line, the relative viability ([1]; first compound 0.04048 µM) was 0.364, the relative viability ([1]; first compound 0.128 µM) was 0.136 and the relative viability ([2]; first compound 0.00128 µM) was 0.972. The relative viability ([2]; first compound 0.004048 µM) was 0.895, the relative viability ([2]; first compound 0.0128 µM) was 0.902 and the relative viability ([2]; first compound 0.04048 µM) was 0.27. For the same cell line, the relative viability ([2]; first compound 0.128 µM) was 0.157, the relative viability ([3]; first compound 0.00128 µM) was 0.335 and the relative viability ([3]; first compound 0.004048 µM) was 0.548. It also gave a relative viability ([3]; first compound 0.0128 µM) of 0.242, a relative viability ([3]; first compound 0.04048 µM) of 0.151 and a relative viability ([3]; first compound 0.128 µM) of 0.107. The relative viability ([4]; first compound 0.00128 µM) was 0.568, the relative viability ([4]; first compound 0.004048 µM) was 0.54 and the relative viability ([4]; first compound 0.0128 µM) was 0.363. It also gave a relative viability ([4]; first compound 0.04048 µM) of 0.148 and a relative viability ([4]; first compound 0.128 µM) of 0.131.
Cell Line NCI-H1666 has a relative viability ([1]; first compound 0.00128 µM) of 0.725, a relative viability ([1]; first compound 0.004048 µM) of 0.902 and a relative viability ([1]; first compound 0.0128 µM) of 0.531. It also gave a relative viability ([1]; first compound 0.04048 µM) of 0.35, a relative viability ([1]; first compound 0.128 µM) of 0.292 and a relative viability ([2]; first compound 0.00128 µM) of 0.949. For the same cell line, the relative viability ([2]; first compound 0.004048 µM) was 0.713, the relative viability ([2]; first compound 0.0128 µM) was 0.299 and the relative viability ([2]; first compound 0.04048 µM) was 0.216. It also gave a relative viability ([2]; first compound 0.128 µM) of 0.214, a relative viability ([3]; first compound 0.00128 µM) of 0.547 and a relative viability ([3]; first compound 0.004048 µM) of 0.56. It also gave a relative viability ([3]; first compound 0.0128 µM) of 0.432, a relative viability ([3]; first compound 0.04048 µM) of 0.316 and a relative viability ([3]; first compound 0.128 µM) of 0.329. The relative viability ([4]; first compound 0.00128 µM) was 0.585, the relative viability ([4]; first compound 0.004048 µM) was 0.302 and the relative viability ([4]; first compound 0.0128 µM) was 0.265. For the same cell line, the relative viability ([4]; first compound 0.04048 µM) was 0.196 and the relative viability ([4]; first compound 0.128 µM) was 0.157.
NCI-H1734 gave a relative viability ([1]; first compound 0.00128 µM) of 0.547, a relative viability ([1]; first compound 0.004048 µM) of 0.53 and a relative viability ([1]; first compound 0.0128 µM) of 0.268. It also gave a relative viability ([1]; first compound 0.04048 µM) of 0.214, a relative viability ([1]; first compound 0.128 µM) of 0.131 and a relative viability ([2]; first compound 0.00128 µM) of 0.708. It also gave a relative viability ([2]; first compound 0.004048 µM) of 0.759, a relative viability ([2]; first compound 0.0128 µM) of 0.716 and a relative viability ([2]; first compound 0.04048 µM) of 0.289. It also gave a relative viability ([2]; first compound 0.128 µM) of 0.16, a relative viability ([3]; first compound 0.00128 µM) of 0.371 and a relative viability ([3]; first compound 0.004048 µM) of 0.368. The relative viability ([3]; first compound 0.0128 µM) was 0.305, the relative viability ([3]; first compound 0.04048 µM) was 0.142 and the relative viability ([3]; first compound 0.128 µM) was 0.118. The relative viability ([4]; first compound 0.00128 µM) was 0.447, the relative viability ([4]; first compound 0.004048 µM) was 0.468 and the relative viability ([4]; first compound 0.0128 µM) was 0.361. The relative viability ([4]; first compound 0.04048 µM) was 0.205 and the relative viability ([4]; first compound 0.128 µM) was 0.151.
With NCI-H1755 the relative viability ([1]; first compound 0.00128 µM) was 0.47, the relative viability ([1]; first compound 0.004048 µM) was 0.468 and the relative viability ([1]; first compound 0.0128 µM) was 0.362. For the same cell line, the relative viability ([1]; first compound 0.04048 µM) was 0.234, the relative viability ([1]; first compound 0.128 µM) was 0.195 and the relative viability ([2]; first compound 0.00128 µM) was 0.957. It also gave a relative viability ([2]; first compound 0.004048 µM) of 0.945, a relative viability ([2]; first compound 0.0128 µM) of 0.891 and a relative viability ([2]; first compound 0.04048 µM) of 0.652. It also gave a relative viability ([2]; first compound 0.128 µM) of 0.254, a relative viability ([3]; first compound 0.00128 µM) of 0.622 and a relative viability ([3]; first compound 0.004048 µM) of 0.57. For the same cell line, the relative viability ([3]; first compound 0.0128 µM) was 0.578, the relative viability ([3]; first compound 0.04048 µM) was 0.254 and the relative viability ([3]; first compound 0.128 µM) was 0.0941. The relative viability ([4]; first compound 0.00128 µM) was 0.446, the relative viability ([4]; first compound 0.004048 µM) was 0.407 and the relative viability ([4]; first compound 0.0128 µM) was 0.229. For the same cell line, the relative viability ([4]; first compound 0.04048 µM) was 0.126 and the relative viability ([4]; first compound 0.128 µM) was 0.09.
NCI-H1792 gave a relative viability ([1]; first compound 0.00128 µM) of 0.494, a relative viability ([1]; first compound 0.004048 µM) of 0.302 and a relative viability ([1]; first compound 0.0128 µM) of 0.0583. It also gave a relative viability ([1]; first compound 0.04048 µM) of 0.0445, a relative viability ([1]; first compound 0.128 µM) of 0.0494 and a relative viability ([2]; first compound 0.00128 µM) of 0.713. It also gave a relative viability ([2]; first compound 0.004048 µM) of 0.64, a relative viability ([2]; first compound 0.0128 µM) of 0.594 and a relative viability ([2]; first compound 0.04048 µM) of 0.441. For the same cell line, the relative viability ([2]; first compound 0.128 µM) was 0.306, the relative viability ([3]; first compound 0.00128 µM) was 0.338 and the relative viability ([3]; first compound 0.004048 µM) was 0.216. For the same cell line, the relative viability ([3]; first compound 0.0128 µM) was 0.066, the relative viability ([3]; first compound 0.04048 µM) was 0.0797 and the relative viability ([3]; first compound 0.128 µM) was 0.0405. For the same cell line, the relative viability ([4]; first compound 0.00128 µM) was 0.326, the relative viability ([4]; first compound 0.004048 µM) was 0.308 and the relative viability ([4]; first compound 0.0128 µM) was 0.253. It also gave a relative viability ([4]; first compound 0.04048 µM) of 0.171 and a relative viability ([4]; first compound 0.128 µM) of 0.143.
Work on NCI-H1793 yielded a relative viability ([1]; first compound 0.00128 µM) of 0.66, a relative viability ([1]; first compound 0.004048 µM) of 0.306 and a relative viability ([1]; first compound 0.0128 µM) of 0.173. For the same cell line, the relative viability ([1]; first compound 0.04048 µM) was 0.109, the relative viability ([1]; first compound 0.128 µM) was 0.0863 and the relative viability ([2]; first compound 0.00128 µM) was 0.846. For the same cell line, the relative viability ([2]; first compound 0.004048 µM) was 0.612, the relative viability ([2]; first compound 0.0128 µM) was 0.356 and the relative viability ([2]; first compound 0.04048 µM) was 0.198. It also gave a relative viability ([2]; first compound 0.128 µM) of 0.167, a relative viability ([3]; first compound 0.00128 µM) of 0.349 and a relative viability ([3]; first compound 0.004048 µM) of 0.391. The relative viability ([3]; first compound 0.0128 µM) was 0.229, the relative viability ([3]; first compound 0.04048 µM) was 0.146 and the relative viability ([3]; first compound 0.128 µM) was 0.0817. The relative viability ([4]; first compound 0.00128 µM) was 0.309, the relative viability ([4]; first compound 0.004048 µM) was 0.172 and the relative viability ([4]; first compound 0.0128 µM) was 0.193. It also gave a relative viability ([4]; first compound 0.04048 µM) of 0.188 and a relative viability ([4]; first compound 0.128 µM) of 0.144.
Cell Line NCI-H1915 has a relative viability ([1]; first compound 0.00128 µM) of 0.587, a relative viability ([1]; first compound 0.004048 µM) of 0.719 and a relative viability ([1]; first compound 0.0128 µM) of 0.219. The relative viability ([1]; first compound 0.04048 µM) was 0.12, the relative viability ([1]; first compound 0.128 µM) was 0.0582 and the relative viability ([2]; first compound 0.00128 µM) was 1.05. It also gave a relative viability ([2]; first compound 0.004048 µM) of 1.06, a relative viability ([2]; first compound 0.0128 µM) of 1.04 and a relative viability ([2]; first compound 0.04048 µM) of 1.02. For the same cell line, the relative viability ([2]; first compound 0.128 µM) was 0.458, the relative viability ([3]; first compound 0.00128 µM) was 0.358 and the relative viability ([3]; first compound 0.004048 µM) was 0.372. For the same cell line, the relative viability ([3]; first compound 0.0128 µM) was 0.308, the relative viability ([3]; first compound 0.04048 µM) was 0.106 and the relative viability ([3]; first compound 0.128 µM) was 0.0928. It also gave a relative viability ([4]; first compound 0.00128 µM) of 0.848, a relative viability ([4]; first compound 0.004048 µM) of 0.992 and a relative viability ([4]; first compound 0.0128 µM) of 0.832. For the same cell line, the relative viability ([4]; first compound 0.04048 µM) was 0.207 and the relative viability ([4]; first compound 0.128 µM) was 0.0693.

From the supplement of paper PMC10307832
